PMC8449414, “Rational design of ASCT2 inhibitors using an integrated experimental-computational approach” (Proceedings of the National Academy of Sciences of the …, 2021)
Entries after “also recorded” stand apart in the source; their conditions may differ.

Experiments:
[1] = molecular target: T1, rEAAT3 (Rattus norvegicus, UniProt P51907); experiment: Electrophysiology: SLC1 specificity, anion current in transfected HEK293 cells; assay type: cell-based; conditions: 0 mV, 10 mM glutamate and 130 mM NaSCN internal, No current = no outward current up to highest concentration tested (§ 20-50, || 100-400, # 1500-2500 µM); for Ki: read-out: Binding affinity Ki
T1 construct: expressed in transfected cells; host or cells: HEK293 (ATCC CRL-11268), transient transfection
T1 sequence (P51907 1-523): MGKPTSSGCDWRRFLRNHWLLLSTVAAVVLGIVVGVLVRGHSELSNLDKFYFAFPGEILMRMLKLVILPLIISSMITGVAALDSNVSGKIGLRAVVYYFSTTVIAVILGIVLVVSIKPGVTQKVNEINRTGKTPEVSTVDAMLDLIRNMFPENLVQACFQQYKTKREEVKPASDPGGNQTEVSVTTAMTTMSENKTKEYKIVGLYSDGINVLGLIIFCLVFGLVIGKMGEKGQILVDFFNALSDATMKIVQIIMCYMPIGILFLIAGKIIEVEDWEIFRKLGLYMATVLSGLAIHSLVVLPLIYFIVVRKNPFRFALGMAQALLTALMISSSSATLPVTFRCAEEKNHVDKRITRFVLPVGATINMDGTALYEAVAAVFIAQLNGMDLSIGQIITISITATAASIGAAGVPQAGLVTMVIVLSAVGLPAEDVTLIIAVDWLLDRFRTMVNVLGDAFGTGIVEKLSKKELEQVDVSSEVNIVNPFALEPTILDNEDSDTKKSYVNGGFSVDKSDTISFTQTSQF
Protocol: (§1) We also tested the specificity of Lc-BPE for ASCT2 over other SLC1 family members (ASCT1, EAAT1-3, and EAAT5).
(§2) Fig. S3. SLC-1 specificity of Lc-BPE. (A) Electrophysiological current responses to the application of 100 µM glutamate (red trace) or varying concentrations of Lc-BPE (black, blue and red traces) to rEAAT1-expressing cells HEK293 cells. (B-C) Dose response curves obtained from currents recorded a fter application of Lc-BPE extracellularly to cells transiently expressing hASCT2, rASCT2, hASCT1 (panel B) and rEAAT1, rEAAT2, rEAAT3 and hEAAT5 (panel C) respectively. For hASCT2, rASCT2 and hASCT1, intracellular pipette solution contained 10 mM alanine and 130 mM NaSCN. For rEAAT1, rEAAT2, rEAAT3 and hEAAT5, intracellular solution contained 10 mM glutamate and 130 mM NaSCN. Extracellular solution was the same for all the experiments (140 mM NaCl). The voltage was 0 mV. […]
(§3) Cell culture and transfection
(§4) Human embryonic kidney 293 (HEK293, ATCC CRL -11268) cells were cultured in DMEM media supplemented with 10% (v/v) fetal bovine serum (FBS), 2 mM glutamine, 1% penicillin streptomycin solution, 1 mM sodium pyruvate and non -essential amino acids. Cells were maintained at 370C in a fully humidified atmosphere containing 5% CO2. rASCT2, hASCT2, hASCT1, EAAT1, EAAT2, EAAT3, EAAT5 and YFP complementary DNAs were each used to transiently transfect HEK293 using POLYPLUS Jet-prime transfection reagent. Cells were analyzed using electrophysiological techniques 24-40 hours after transfection.
(§5) Electrophysiological techniques
(§6) Electrophysiological experiments were performed as described previously 1,2. Stock solutions of inhibitor was prepared in dimethyl sulfoxide (DMSO) up to 100 mM.
(§7) Dilutions to working concentrations were made using external buffer. The highest […]
(§8) cells. For rASCT2, hASCT2 and hASCT1, external buffer contained 140 mM NaCl, 2 mM MgCl2, 2 mM CaCl2, and 10 mM HEPES, pH 7.40 while internal pipette solution comprised of 130 mM NaSCN, 2 mM MgCl2, 10 mM EGTA, 10 mM HEPES and 10mM alanine, pH 7.40. For specificity experiments with EAAT1, EAAT2, EAAC1 and EAAT5, internal solution contained 10 mM glutamate instead of alanine. Compounds were applied to HEK293 cells expressing DNA of interest suspended from a current recording electrode in whole cell configuration44 through a rapid solution exchange device described previously45. Cells are immersed in external buffer bath used to dissolve the inhibitors. The open pipette resistance was between 3 and 6 MΩ. Series resistance was not compensated in these experiments due to relatively small currents. Current s traces were recorded using an Adams and List EPC7 amplifier and digitized using a Molecular Devices Digidata A/D converter.
(§9) Data analysis was performed as described previously 46. Linear and nonlinear curve fitting of the experimental data were analyzed using MicroCal Origin software. Linear plots were fitted using the general equation (y = a + bx) obtaining adjusted R 2 and Pearson’s r values. Nonlinear dose–response relationships were fitted with a Michaelis – Menten-like equation to obtain apparent Ki values in the absence of substrate. For competition studies, equation I = I1 + I2 [Inh]/(Ki + [Inh]) was used for fitting, where I1 is the alanine induced current without the inhibitor, and I2 is the maximum current in the presence of saturating inhibitor concentration, [Inh]max 1,2. At least five experiments were performed for each compound. Unless stated otherwise, the error bars in all our graphs represent mean ± SD .
(§10) ASCT2 expression and purification
(§11) Human ASCT2 (hASCT2) was produced in Pichia pastoris X-33 strain (Invitrogen) in fermentor26 and purified using DDM and CHS (Anatrace) and 1 mM L-glutamine (Merck) to maintain protein stability 27. Membranes representing ~1.5 g cells were solubilized in buffer A (25 mM Tris-HCl, pH 7.4, 300 mM NaCl, 10% (vol/vol) glycerol, 1 mM L - glutamine, 1% DDM and 0.1% CHS) for 1 h at 4 °C; ultracentrifuged (30 min, 442,907 × […]

[2] = molecular target: T2, rEAAT1 (Rattus norvegicus, UniProt P24942); experiment: as above; assay type: cell-based; conditions: 0 mV, 10 mM glutamate and 130 mM NaSCN internal, No current = no outward current up to highest concentration tested (§ 20-50, || 100-400, # 1500-2500 µM); for Ki: read-out: Binding affinity Ki
T2 construct: expressed in transfected cells; host or cells: HEK293 (ATCC CRL-11268), transient transfection
T2 sequence (P24942 1-543): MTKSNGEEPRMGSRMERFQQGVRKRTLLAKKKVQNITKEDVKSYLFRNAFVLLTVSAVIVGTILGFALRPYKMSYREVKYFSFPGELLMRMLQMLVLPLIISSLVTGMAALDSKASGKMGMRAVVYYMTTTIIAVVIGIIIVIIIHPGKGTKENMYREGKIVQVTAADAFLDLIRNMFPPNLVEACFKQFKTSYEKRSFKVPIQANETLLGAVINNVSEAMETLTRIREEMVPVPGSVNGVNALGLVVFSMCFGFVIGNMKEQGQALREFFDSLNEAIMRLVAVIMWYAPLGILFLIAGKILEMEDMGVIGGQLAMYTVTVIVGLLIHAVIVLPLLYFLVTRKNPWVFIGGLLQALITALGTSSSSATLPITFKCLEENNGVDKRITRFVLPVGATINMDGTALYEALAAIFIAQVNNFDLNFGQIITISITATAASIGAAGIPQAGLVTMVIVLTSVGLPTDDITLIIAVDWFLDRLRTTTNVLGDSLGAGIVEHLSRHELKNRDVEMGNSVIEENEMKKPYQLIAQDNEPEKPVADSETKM
Protocol: as §1, §2, §3, §4, §5, §6, §7, §8, §9, §10, §11

Row | Compound | Binding affinity Ki [1] | Binding affinity Ki [2] | Ki [1] [µM] | Ki [2] [µM]
1 | O=C(O[C@@H]1CN[C@H](C(=O)O)C1)c1ccccc1-c1ccccc1 [ERA-3] | No current | No current | – | –
2 | O=C(O[C@@H]1CN[C@H](C(=O)O)C1)c1ccc(-c2ccc(F)cc2)cc1 [ERA-4] | – | – | 0.69 ± 0.07 | 0.4 ± 0.07
3 | O=C(O[C@@H]1CN[C@H](C(=O)O)C1)c1ccc(-c2ccc(C(F)(F)F)cc2)cc1 [ERA-5] | – | – | 1.25 ± 0.24 | 1 ± 0.25
4 | Cc1ccccc1-c1ccc(C(=O)O[C@@H]2CN[C@H](C(=O)O)C2)cc1 [ERA-6] | – | – | 1.99 ± 0.36 | 1 ± 0.11
5 | O=C(O[C@@H]1CN[C@H](C(=O)O)C1)c1ccc(C(O)c2ccccc2)cc1 (some centres unmarked) [ERA-9] | No current; also recorded: No inhibitory activity was detected | – | – | 39.5
6 | O=C(Nc1ccc(C(=O)O[C@@H]2CN[C@H](C(=O)O)C2)cc1)c1ccc(C(F)(F)F)cc1 [ERA-11] | No current | – | – | 9.6 ± 7.5
7 | O=C(O[C@@H]1CN[C@H](C(=O)O)C1)c1ccc(Oc2ccccc2)cc1 [ERA-16] | – | – | 10.3 ± 2.15 | 8.18 ± 1.77
8 | N[C@@H](COC(=O)c1ccc(NC(=O)c2ccccc2)cc1)C(=O)O [ERA-21] | – | – | 12.3 ± 1.86 | 9.57 ± 1.61
9 | N[C@@H](COC(=O)c1ccccc1)C(=O)O [ERA-25] | – | – | 656 ± 115 | 195 ± 48.4
10 | N[C@@H](COC(=O)c1cccnc1)C(=O)O [ERA-28] | No current | No current | – | –
11 | O=C(O[C@@H]1CN[C@H](C(=O)O)C1)C(c1ccccc1)c1ccccc1 [ERA-29] | No current | No current | – | –
12 | O=C(O[C@@H]1CN[C@H](C(=O)O)C1)c1ccc(OCc2ccccc2)cc1 [ERA-31] | No current | No current | – | –
13 | O=C(O[C@H]1CN[C@H](C(=O)O)C1)c1ccc(C(=O)c2ccccc2)cc1 [ERA-35] | No current | No current | – | –
